Reference: patent US20220002333A1, “CRYSTALLINE FORM A OF 2'-FLUORO-4'-SUBSTITUTED NUCLEOSIDE ANALOGUE I AND PREPARATION METHOD AND APPLICATION THEREOF” (Henan Genuine Biotech Co., Ltd., priority 2019, published 2022)
Like-named read-outs stand apart in the source and are kept apart here.

Assays:
[1] = test system: B-cell non-Hodgkin's lymphoma; assay: Anticancer activity on B-cell non-Hodgkin's lymphoma
Protocol: The anticancer (non-Hodgkin's lymphoma) activity of the crystalline form A of the compound I was determined according to the literature method (Asian Pacific Journal of cancer prevention 2014, 15, 6829).
(§1) The anticancer activity of the crystalline form A of the compound I on B-cell non-Hodgkin lymphoma, lung cancer, gastric cancer, colorectal cancer and leukemia was determined according to the literature method (Wang, Q. et al Biochemical Pharmacology 2011, 81, 848; Asian Pacific Journal of Cancer Prevention 2014, 15, 6829).

lung cancer = assay: Anticancer activity on lung cancer
Protocol: as §1

leukemia = assay: Anticancer activity on leukemia
Protocol: as §1

[2] = Stability evaluation of crystalline forms under high temperature, high humidity and light (XRPD); assay type: physicochemical; conditions: for Stability of crystalline form under high humidity: 40° C. and 75% humidity for five and ten days; for Stability of crystalline form under high temperature: 60° C. for five days and ten days; for Stability in stability evaluation (overall): high temperature, high humidity and light
Protocol: The crystalline forms of the compound were systematically screened by means of unitary method, binary method, cooling, dissolution (positive and negative), diffusion and so on, and two crystalline forms were found: crystalline form A and amorphous crystalline form B. The stabilities of the crystalline form A and the crystalline form B under high temperature, high humidity and light were evaluated respectively. […] These experimental conditions were as follows: the high temperature condition is 60° C. for five days and ten days; the high humidity condition is 40° C. and 75% humidity for five and ten days; the light conditions were 4500 lux for five and ten days.

[3] = Static electricity and mixing uniformity with excipients / content of compound I in tablets; assay type: physicochemical; conditions: for Drug content for each tablet: 10 tablets arbitrarily selected, average 1 mg compound I and 149 mg excipients per 150 mg tablet; for Static: solid compound I
Protocol: After 10 days of storage at 40° C./75% humidity, 80-90% of the solid compound I with amorphous form B is gradually transformed into stable crystalline form A. The compound of crystalline form A is a loose solid. Because the dosage of the compound I for adults with AIDS is only 1-3 mg per day, which is a low amount, the uniform mixing of the compound with an excipient is crucial to ensure the anti HIV effect of the drug.

T-cell lymphoma = assay: Anti-T-cell lymphoma activity in patient-derived tumor xenografts (PDX) mouse model; assay type: in vivo
Protocol: The inhibitory effect of the crystalline form A of the compound I on T-cell lymphoma was determined by patient-derived tumor xenograft (PDX).
After the patient's T-cell lymphoid carcinoma tissue was sampled, the tissue was transferred to a specific pathogen free (SPF) animal room through a transfer window. In a super clean table, phosphate buffered saline (PBS) buffer with double antibodies, Dulbecco's modified eagle medium (DMEM) medium, Petri dish and ice bag were prepared. An appropriate amount of PBS and DMEM were poured to the Petri dishes on ice. The tissue was taken out and put into PBS for preliminary cleaning, and necrotic and normal tissue was removed. The tissue in PBS was transferred to DMEM. The remaining tissue was cut into small pieces of 20-30 mm^3 patches, which were transplanted into the armpit and back of mice with puncture needles. Each mouse was inoculated with the tissue on one site. The tumors of the inoculated mice were taken out regularly, photographed, and the volume changes thereof were compared (see FIG. 9).

[4] = listed as sheet amorphous solid B

SMILES	Inhibitory effect on B-cell non-Hodgkin's lymphoma [1]	Inhibitory effect on lung cancer (lung cancer)	Inhibitory effect on leukemia (leukemia)	Stability of crystalline form under high humidity [2]	Stability of crystalline form under high temperature [2]	Stability in stability evaluation (overall) [2]	Mixing with excipients [3]	Drug content for each tablet [3] [mg]	Static [3]	Static ([3]; listed as Crystalline form)	Inhibition of growth of T-cell lymphoma (T-cell lymphoma; dose 2 mg/kg)	Inhibition of growth of T-cell lymphoma (T-cell lymphoma; dose 4 mg/kg)	Inhibition of growth of T-cell lymphoma (T-cell lymphoma; dose 8 mg/kg)	Portion of solid transformed into stable crystalline form A ([2]; after 10 days of storage at 40° C./75% humidity)	Drug content for each tablet ([3]; listed as Amorphous B) [mg]	Mixing with excipients [3, 4]	Static ([3]; listed as Amorphous B)	Static [3, 4]
[N-]=[N+]=N[C@]1(CO)O[C@@H](n2ccc(N)nc2=O)[C@@H](F)[C@@H]1O [compound I, 2′-fluoro-4′-substituted nucleoside analogue I]	significant inhibitory effects	significant inhibitory effects	significant inhibitory effects															
[N-]=[N+]=N[C@]1(CO)O[C@@H](n2ccc(N)nc2=O)[C@@H](F)[C@@H]1O [crystalline form A, 2′-fluoro-4′-substituted nucleoside analogue I]				stable	stable	good stability	easy to mix evenly with excipients	0.95 to 1.05	no static electricity	No	significantly inhibit	significantly inhibit	significantly inhibit					
[N-]=[N+]=N[C@]1(CO)O[C@@H](n2ccc(N)nc2=O)[C@@H](F)[C@@H]1O [crystalline form B, 2′-fluoro-4′-substituted nucleoside analogue I]				gradually transformed into crystalline form A	gradually transformed into crystalline form A	generally stable								80-90%	0.5 to 1.5	not easy to mix evenly with excipients	Yes	obvious static electricity
